The values below come from patent publication US20260176267A1, “PREPARATION OF IMIDAZOPYRIDINE AND IMIDAZOPYRIDAZINE DERIVATIVES AS NOVEL DIACYLGLYCERIDE O-ACYLTRANSFERASE 2 INHIBITORS” (Merck Sharp & Dohme LLC, priority 2022, published 2026).

Broadly, the IC50 is the concentration at which inhibition is half-maximal. Low readings indicate greater potency, high ones weaker potency.

For this assay, the target named is T1, human DGAT2 (hDGAT2) (Homo sapiens, UniProt Q96PD7).
T1 construct: made in house; host or cells: Sf-9 insect cells (baculovirus), membrane fraction
T1 sequence (Q96PD7 1-388): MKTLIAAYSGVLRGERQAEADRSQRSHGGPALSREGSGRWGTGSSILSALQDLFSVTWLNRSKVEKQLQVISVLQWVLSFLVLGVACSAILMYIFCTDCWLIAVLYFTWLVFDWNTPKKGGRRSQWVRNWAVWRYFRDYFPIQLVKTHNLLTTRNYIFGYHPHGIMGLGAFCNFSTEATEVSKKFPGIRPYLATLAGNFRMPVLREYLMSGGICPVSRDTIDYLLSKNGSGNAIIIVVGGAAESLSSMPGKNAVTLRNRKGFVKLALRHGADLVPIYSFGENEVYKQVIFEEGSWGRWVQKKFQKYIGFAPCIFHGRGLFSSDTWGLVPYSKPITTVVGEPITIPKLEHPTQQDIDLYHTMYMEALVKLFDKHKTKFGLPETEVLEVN
As to the kind of experiment: DGAT2 Enzymatic Activity Assay. Particulars: membrane prep of Sf-9 cells expressing hDGAT2; 13C18-triolein product by LC/MS/MS; 25 μM diolein, 5 μM 13C oleoyl-CoA, rt. It is filed as biochemical. The method, then: Sf-9 insect cells were maintained in Grace's insect cell culture medium with 10% heated-inactivated fetal bovine serum, 1% Pluronic F-68 and 0.14 μg/ml Kanamycine sulfate at 27° C. in a shaker incubator. After infection with untagged baculovirus expressing human DGAT2 (hDGAT2) at multiplicity of infection (MOI) 3 for 48 hours, cells were harvested. Cell pellets were suspended in buffer containing 10 mM Tris-HCl pH 7.5, 1 mM EDTA, 250 mM sucrose and Complete Protease Inhibitor Cocktail (Sigma Aldrich), and sonicated on ice. Cell debris were removed by centrifugation at 2000×g for 15 minutes. Membrane fractions were isolated by ultracentrifugation (100,000×g), resuspended in the same buffer, and frozen (−80° C.) for later use. The protein concentration was determined with the Pierce™ BCA Protein Assay Kit (Thermo Fisher Scientific).
LC/MS/MS analyses were performed using Thermal Fisher's LX4-TSQ Vantage system. This system consists of an Agilent binary high-performance liquid chromatography (HPLC) pump and a TSQ Vantage triple quadrupole MS/MS instrument. For each sample, 2 μL samples from the top organic layer of in-plate liquid-liquid extraction were injected onto a Thermo Betabasic C4 column (2.1 mm×20 mm, 5 μm particle size). The samples were then eluted using the following conditions; mobile phase: Isopropanol:acetonitrile/10 mM ammonium formate=50/35/15 (v/v/v), flow rate: 0.8 mL/min, temperature: 25° C. Data was acquired in positive mode using a heated electrospray ionization (HESI) interface. The operational parameters for the TSQ Vantage MS/MS instrument were a spray voltage of 3000 V, capillary temperature of 280° C., vaporizer temperature 400° C., sheath gas 45 arbitrary unit. Aux gas 10 arbitrary units. […] The peak area was integrated by Xcalibur Quan software. The ratio between the ^13C18 triolein generated in the reaction and spiked in internal standard ^13C21-triolein was used to generate percentage inhibition and IC50 values. Compound percentage inhibition was calculated by the following formula: Inhibition %=1−[(compound response−low control)/(high control−low control)]×100%.
DGAT2 activity was determined by measuring the amount of enzymatic product ^13C18-triolein (^13C-1,2,3-Tri(cis-9-octadecenoyl)glycerol) using the membrane prep mentioned above. The assay was carried out in ABgene 384-well assay plates in a final volume of 25 μL at rt.
Consider `CC(F)(F)COc1cc(Cl)cnc1Oc1ccc2nc(C(=O)NC3(C)CCS(=O)(=O)CC3)cn2c1` [Example 18, 6-[[5-chloro-3-(2,2-difluoropropoxy)-2-pyridyl]oxy]-N-(4-methyl-1,1-dioxo-thian-4-yl)imidazo[1,2-a]pyridine-2-carboxamide], for which the 50% inhibitory concentration (IC50) stood at 2 nM.
With `Cc1c(C(=O)NC2(CC(F)(F)F)CCS(=O)(=O)CC2)nc2ccc(Oc3ncc(F)cc3OCC(F)F)cn12` [Example 62, 6-[[3-(2,2-difluoroethoxy)-5-fluoro-2-pyridyl]oxy]-N-[1,1-dioxo-4-(2,2,2-trifluoroethyl)thian-4-yl]-3-methyl-imidazo[1,2-a]pyridine-2-carboxamide] the figure was 1.5 nM.
As for `CCOc1cccnc1COc1ccc2nc(C(=O)NC3(C)CCS(=O)(=O)CC3)c(C)n2c1` [Example 125, 6-[(3-ethoxy-2-pyridyl)methoxy]-3-methyl-N-(4-methyl-1,1-dioxo-thian-4-yl)imidazo[1,2-a]pyridine-2-carboxamide], the IC50 was determined as 4.9 nM.
With `CCc1cc2nc(C(=O)NC3(C)CCS(=O)(=O)CC3)cn2cc1Oc1ncc(Cl)cc1OCC(F)(F)F` [Example 59, 6-((5-Chloro-3-(2,2,2-trifluoroethoxy)pyridin-2-yl)oxy)-7-ethyl-N-(4-methyl-1,1-dioxidotetrahydro-2H-thiopyran-4-yl)imidazo[1,2-a]pyridine-2-carboxamide] the figure was 9 nM; with `Cc1c(C(=O)NC2(C)CS(=O)(=O)C2)nc2ccc(Oc3ncc(F)cc3OCC(F)F)cn12` [Example 74, 6-[[3-(2,2-difluoroethoxy)-5-fluoro-2-pyridyl]oxy]-3-methyl-N-(3-methyl-1,1-dioxo-thietan-3-yl)imidazo[1,2-a]pyridine-2-carboxamide], 6.7 nM; with `Cc1c(C(=O)NC2(C)CCS(=O)(=O)C(C)(C)C2)nc2ccc(Oc3ncc(Cl)cc3OCC(F)F)cn12` (stereo not shown) [Example 100, 6-[[5-chloro-3-(2,2-difluoroethoxy)-2-pyridyl]oxy]-3-methyl-N-(2,2,4-trimethyl-1,1-dioxo-thian-4-yl)imidazo[1,2-a]pyridine-2-carboxamide], 114 nM.
Under `Cc1c(Oc2ncccc2OCC(F)(F)F)ccc2nc(C(=O)NC3(C)CCS(=O)(=O)CC3)cn12` [Example 36, 5-methyl-N-(4-methyl-1,1-dioxo-thian-4-yl)-6-[[3-(2,2,2-trifluoroethoxy)-2-pyridyl]oxy]imidazo[1,2-a]pyridine-2-carboxamide] stands 30 nM; under `CC1(NC(=O)c2nc3ccc(Oc4ncccc4OCC(F)(F)F)cn3c2Cl)CCS(=O)(=O)CC1` [Example 130, 3-chloro-N-(4-methyl-1,1-dioxo-thian-4-yl)-6-[[3-(2,2,2-trifluoroethoxy)-2-pyridyl]oxy]imidazo[1,2-a]pyridine-2-carboxamide], 3.3 nM.
The compound `CC(C)c1cc2nc(C(=O)NC3(C)CCS(=O)(=O)CC3)cn2cc1Oc1ncc(Cl)cc1OCC(F)(F)F` [Example 43, 6-[[5-chloro-3-(2,2,2-trifluoroethoxy)-2-pyridyl]oxy]-7-isopropyl-N-(4-methyl-1,1-dioxo-thian-4-yl)imidazo[1,2-a]pyridine-2-carboxamide] yielded an IC50 of 122 nM.
Under `Cc1c(C(=O)NC2(C)CCS(=O)(=O)CC2)nc2ccc(OCCC(F)(F)F)cn12` [Example 128, 3-methyl-N-(4-methyl-1,1-dioxo-thian-4-yl)-6-(3,3,3-trifluoropropoxy)imidazo[1,2-a]pyridine-2-carboxamide] stands above 9990 nM; under `Cc1c(Oc2ncc(F)cc2OCC2(F)CC2)ccc2nc(C(=O)NC3(C)CCS(=O)(=O)CC3)cn12` [Example 33, 6-[[5-fluoro-3-[(1-fluorocyclopropyl)methoxy]-2-pyridyl]oxy]-5-methyl-N-(4-methyl-1,1-dioxo-thian-4-yl)imidazo[1,2-a]pyridine-2-carboxamide], 5.3 nM.
With `Cc1ccnc(Oc2ccc3nc(C(=O)NC4(C)CCS(=O)(=O)CC4)c(C)n3c2)c1OCC(F)(F)F` [Example 107, 3-methyl-N-(4-methyl-1,1-dioxo-thian-4-yl)-6-[[4-methyl-3-(2,2,2-trifluoroethoxy)-2-pyridyl]oxy]imidazo[1,2-a]pyridine-2-carboxamide] the figure was 634 nM; with `Cc1c(C(=O)NC2(C)CS(=O)(=O)C2)nc2cc(F)c(Oc3ncc(Cl)cc3OCC(F)(F)F)cn12` [Example 120, 6-[[5-chloro-3-(2,2,2-trifluoroethoxy)-2-pyridyl]oxy]-7-fluoro-3-methyl-N-(3-methyl-1,1-dioxo-thietan-3-yl)imidazo[1,2-a]pyridine-2-carboxamide], 4.3 nM.
Turning to `CCOc1cccnc1Oc1ccc2nc(C(=O)NC3(C)CS(=O)(=O)C3)c(CC)n2c1` [Example 114, 6-[(3-ethoxy-2-pyridyl)oxy]-3-ethyl-N-(3-methyl-1,1-dioxo-thietan-3-yl)imidazo[1,2-a]pyridine-2-carboxamide], 64 nM corresponded to half-maximal inhibition (IC50).
With `Cc1cc2nc(C(=O)NC3(C)CS(=O)(=O)C3)cn2nc1Oc1ncc(Cl)cc1OCC(F)F` [Example 169, 6-[[5-chloro-3-(2,2-difluoroethoxy)-2-pyridyl]oxy]-7-methyl-N-(3-methyl-1,1-dioxo-thietan-3-yl)imidazo[1,2-b]pyridazine-2-carboxamide] the figure was 121 nM.
With `Cc1c(C(=O)NC2(C)CCS(=O)(=O)CC2)nc2ccc(Oc3ncc(C4CC4)cc3OCC(F)(F)F)cn12` [Example 145, 6-[[5-cyclopropyl-3-(2,2,2-trifluoroethoxy)-2-pyridyl]oxy]-3-methyl-N-(4-methyl-1,1-dioxo-thian-4-yl)imidazo[1,2-a]pyridine-2-carboxamide] the figure was 133 nM; with `Cc1cc2nc(C(=O)NC3(C)CC(F)(F)C3)cn2cc1Oc1ncc(F)cc1OCC(F)F` [Example 25, 6-[[3-(2,2-difluoroethoxy)-5-fluoro-2-pyridyl]oxy]-N-(3,3-difluoro-1-methyl-cyclobutyl)-7-methyl-imidazo[1,2-a]pyridine-2-carboxamide], 3.8 nM.
Under `Cc1cc2nc(C(=O)NC3(C)CCS(=O)(=O)CC3)cn2cc1Oc1ncc(Cl)cc1OCC1(F)COC1` [Example 41, 6-[[5-chloro-3-[(3-fluorooxetan-3-yl)methoxy]-2-pyridyl]oxy]-7-methyl-N-(4-methyl-1,1-dioxo-thian-4-yl)imidazo[1,2-a]pyridine-2-carboxamide] stands 74 nM; under `CC1(NC(=O)c2cn3nc(OCc4c(F)cccc4OC(F)F)ccc3n2)CCS(=O)(=O)CC1` [Example 181, 6-[[2-(Difluoromethoxy)-6-fluoro-phenyl]methoxy]-N-(4-methyl-1,1-dioxo-thian-4-yl)imidazo[1,2-b]pyridazine-2-carboxamide], 25 nM.
With `CC(F)(F)COc1cc(Cl)cnc1Oc1ccc2nc(C(=O)NC3(C)CCS(=O)(=O)CC3)cn2n1` [Example 154, 6-[[5-Chloro-3-(2,2-difluoropropoxy)-2-pyridyl]oxy]-N-(4-methyl-1,1-dioxo-thian-4-yl)imidazo[1,2-b]pyridazine-2-carboxamide], the IC50 was 154 nM.
Under `Cc1c(C(=O)NC2(C)CCS(=O)(=O)CC2)nc2ccc(Oc3ncc(F)cc3OCC(C)(F)F)cn12` [Example 94, 6-[[3-(2,2-difluoropropoxy)-5-fluoro-2-pyridyl]oxy]-3-methyl-N-(4-methyl-1,1-dioxo-thian-4-yl)imidazo[1,2-a]pyridine-2-carboxamide] stands 12 nM; under `Cc1c(Oc2ncc(Cl)cc2OCC(C)(F)F)ccc2nc(C(=O)NC3(C)CCS(=O)(=O)CC3)cn12` [Example 31, 6-[[5-chloro-3-(2,2-difluoropropoxy)-2-pyridyl]oxy]-5-methyl-N-(4-methyl-1,1-dioxo-thian-4-yl)imidazo[1,2-a]pyridine-2-carboxamide], 9.1 nM.
